# Laboratory results published in publication PMC4737078, “Cytochrome P450 CYP71BE5 in grapevine (Vitis vinifera) catalyzes the formation of the spicy aroma compound (−)-rotundone” (Journal of Experimental Botany, 2015).
# T1: VvSTO6 (Vitis vinifera, UniProt A0A0S3QPS9)
# T1 construct: gene CYP71BE10
# T1 sequence (A0A0S3QPS9 1-505): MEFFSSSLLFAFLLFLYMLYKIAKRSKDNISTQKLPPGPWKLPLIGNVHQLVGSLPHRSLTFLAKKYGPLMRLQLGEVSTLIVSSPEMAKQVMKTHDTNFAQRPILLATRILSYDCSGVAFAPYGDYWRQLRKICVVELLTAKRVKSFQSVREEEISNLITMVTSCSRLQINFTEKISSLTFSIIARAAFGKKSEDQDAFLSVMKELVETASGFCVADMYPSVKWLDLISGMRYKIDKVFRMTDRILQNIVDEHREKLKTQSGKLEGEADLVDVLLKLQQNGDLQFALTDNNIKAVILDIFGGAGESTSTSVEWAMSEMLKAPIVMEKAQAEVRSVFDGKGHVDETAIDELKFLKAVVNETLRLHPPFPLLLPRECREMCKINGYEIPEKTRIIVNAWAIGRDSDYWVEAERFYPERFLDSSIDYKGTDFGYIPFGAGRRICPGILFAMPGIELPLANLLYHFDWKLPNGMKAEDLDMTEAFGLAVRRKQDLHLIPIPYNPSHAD
# T2: VvSTO4 (Vitis vinifera, UniProt A0A0S3QPU4)
# T2 construct: gene CYP71BE1
# T2 sequence (A0A0S3QPU4 1-504): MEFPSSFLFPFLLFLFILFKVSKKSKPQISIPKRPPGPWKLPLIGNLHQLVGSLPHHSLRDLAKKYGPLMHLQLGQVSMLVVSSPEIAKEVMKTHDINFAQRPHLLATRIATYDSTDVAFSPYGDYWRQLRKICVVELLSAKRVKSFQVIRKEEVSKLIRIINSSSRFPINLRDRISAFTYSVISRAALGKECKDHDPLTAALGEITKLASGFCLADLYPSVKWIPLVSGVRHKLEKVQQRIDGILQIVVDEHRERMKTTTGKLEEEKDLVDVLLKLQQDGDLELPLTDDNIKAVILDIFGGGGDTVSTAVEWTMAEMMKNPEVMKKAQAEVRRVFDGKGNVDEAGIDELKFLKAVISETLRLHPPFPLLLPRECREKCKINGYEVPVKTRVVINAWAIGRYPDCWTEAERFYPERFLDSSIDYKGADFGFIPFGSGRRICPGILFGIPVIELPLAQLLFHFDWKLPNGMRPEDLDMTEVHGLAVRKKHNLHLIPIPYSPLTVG
# B1: VvSTO2 (Vitis vinifera) (protein)
# chain: MELQFSFFPILCTFLLFIYLLKRLGKPSRTNHPAPKLPPGPWKLPIIGNMHQLVGSLPHRSLRSLAKKHGPLMHLQLGEVSAIVVSSREMAKEVMKTHDIIFSQRPCILAASIVSYDCTDIAFAPYGGYWRQIRKISVLELLSAKRVQSFRSVREEEVLNLVRSVSLQEGVLINLTKSIFSLTFSIISRTAFGKKCKDQEAFSVTLDKFADSAGGFTIADVFPSIKLLHVVSGMRRKLEKVHKKLDRILGNIINEHKARSAAKETCEAEVDDDLVDVLLKVQKQGDLEFPLTMDNIKAVLLDLFVAGTETSSTAVEWAMAEMLKNPRVMAKAQAEVRDIFSRKGNADETVVRELKFLKLVIKETLRLHPPVPLLIPRESRERCAINGYEIPVKTRVIINAWAIARDPKYWTDAESFNPERFLDSSIDYQGTNFEYIPFGAGRRMCPGILFGMANVELALAQLLYHFDWKLPNGARHEELDMTEGFRTSTKRKQDLYLIPITYRPLPVE
# Key:
# VvSTO6 = target: T1, VvSTO6; experiment: GC-MS of reaction products, recombinant yeast microsomes; type: biochemical; conditions: 100 μM substrate, 1 mM NADPH, 50 mM Tris-HCl pH 7.5, 30 °C, 2 h; unidentified products presumed mono-hydroxylated sesquiterpenes
# VvSTO4 = target: T2, VvSTO4; experiment: as above; type: biochemical; conditions: 100 μM substrate, 1 mM NADPH, 50 mM Tris-HCl pH 7.5, 30 °C, 2 h; unidentified products presumed mono-hydroxylated sesquiterpenes
# [1] = substrate: C=C(C)[C@@H]1CCC2=CCC[C@@H](C)[C@]2(C)C1; experiment: cells, lysate or membranes; conditions: 1 mM NADPH, 50 mM Tris-HCl pH 7.5, 30 °C, 30 min, 2–100 μM substrate
# [2] = substrate: C=C(C)[C@@H]1CC[C@H](C)C2=C(C1)[C@@H](C)CC2; experiment: GC-MS (SBSE) of (−)-rotundone formation, Hanes-Woolf plot, recombinant yeast microsomes; type: biochemical, Vitis vinifera; conditions: 1 mM NADPH, 50 mM Tris-HCl pH 7.5, 30 °C, 30 min, 2.6–130 μM substrate
Molecule,"GC-MS of reaction products, recombinant yeast microsomes (VvSTO6)","GC-MS of reaction products, recombinant yeast microsomes (VvSTO4)",Km [1] [µM],Km [2] [µM]
C=C(C)[C@@H]1CC[C@H](C)C2=C(C1)[C@@H](C)CC2 [α-guaiene],VvSTO4 and VvSTO6 produced several reaction products with α-guaiene as a substrate,VvSTO4 and VvSTO6 produced several reaction products with α-guaiene as a substrate,–,–
B1,–,–,35,30
